Results as given in paper PMC3379994, “Comprehensive Analysis of Interactions between the Src-Associated Protein in Mitosis of 68 kDa and the Human Src-Homology 3 Proteome” (PLoS ONE, 2012).

Key:
β-Pix-SH3 = molecular target: T1, β-Pix-SH3 (Homo sapiens, UniProt Q14155); conditions: cited from earlier work
T1 construct: gene ARHGEF7; β-Pix SH3 domain
T1 sequence (Q14155 184-243): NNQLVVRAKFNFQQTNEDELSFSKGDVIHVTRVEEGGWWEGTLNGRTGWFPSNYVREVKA
Description: Remarkably, Kd values calculated for the Sam68-SH3-interactions (considering the aforementioned correction value) lie in the low nanomolar range (cf. Fig. 1B). This is unexpected for SH3 domains, whose affinities are considered to lie in the low micromolar range [2], [51]. However, critical examination of the literature challenges the generality of the latter proposition. […] This can have a significant influence on binding-strength, as illustrated for instance for the Abp1-SH3 domain, comprising a Kd-value of 100 µM to a 14-mer ligand-peptide, and 40 µM after elongation to a 17-mer peptide. Nevertheless, some values obtained for Sam68-SH3 interactions still are one order of magnitude lower than even the best reported in the literature. Likely, this is due to an artifical avidity effect resulting from the use of the SH3-phages. As the SH3 domains bind to more than one of the PxxP-motifs, it is conceivable that one phage-particle docks to two or more PxxP-motifs of an individual Sam68 molecule via multiple SH3 domains. Consequently, even after dissociation of one SH3-PxxP-pair, the phage would still be retained by the protein. Kinetically, this corresponds to a decrease in the off-rate and concomitantly to a decrease in the Kd value. The affinity gain of the interaction is not due to cooperativity, as is evident from the Hill-transformed ELISA data yielding Hill-coefficients α of 1.0. […]

Src = Src (Homo sapiens, UniProt P12931); conditions: n = 3
Experimental: (§1) To characterize the binding of SH3-phages to recombinant proteins, phage-ELISA analyses were performed. First, 1 µg of recombinant protein per well was immobilized on 96-well MaxiSorp plates (Nunc) over night. After washing thrice with PBS/T (PBS with 0.1 % Tween-20) and blocking with 5 % BSA in PBS, dilution-series of the respective phage-supernatants in 2×YTAmp,Kana were added and incubated for 1 h. After washing 10 times with PBS/T, an HRP-coupled anti-M13-antibody (GE Healthcare, 27-9421-01) diluted 1 : 5000 in blocking solution was added for 1 h. After washing again 10 times, TMB substrate solution was added, the reaction finally stopped by addition of 0.5 M H2SO4, and the result read out by measuring OD450.
(§2) First, we aimed at quantifying the binding affinities of the SH3-displaying phages to Sam68. To this end, we established a phage-ELISA procedure to separately analyse phage supernatants of the ten individual SH3-phages. In brief, His-Sam68 was coated to a 96-well plate, blocked and incubated with a dilution series of phage supernatants. Finally, bound phages were detected using an anti-M13-specific HRP-coupled antibody. As depicted in Fig. 1A, binding curves were obtained that are typical for a simple ligand-receptor relationship as is expected for an SH3-domain-PxxP-interaction showing no allosteric effects. Kd-values can not be deduced from these curves in the first instance, because the concentration of SH3 domains in the supernatants is unknown due to each phage particle presenting many copies on its surface. […]
(§3) Figure 1 Analysis of Sam68-binding SH3 domains in vitro. […] The amounts of bound phages were measured using a horseradish peroxidase-conjugated anti-M13-specific antibody with TMB-substrate detection at 450 nm (mean of three independent experiments, normalized to maximum OD-values). […] Bound proteins were eluted and Sam68 was detected by western blot analysis. […]

IS2#3 = molecular target: T2, IS2#3 (Homo sapiens, UniProt Q9NZM3); conditions: n = 3
T2 construct: gene ITSN2
T2 sequence (Q9NZM3 981-1039): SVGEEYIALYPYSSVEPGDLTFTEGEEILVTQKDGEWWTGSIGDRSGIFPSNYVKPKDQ
Experimental: as §1, §2, §3

Hck = Hck (Homo sapiens, UniProt P08631); conditions: n = 3
Sequence of Hck (P08631 78-138): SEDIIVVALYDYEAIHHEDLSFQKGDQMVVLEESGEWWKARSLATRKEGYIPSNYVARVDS
Experimental: as §1, §2, §3

Nck1#2 = Nck1#2 (Homo sapiens, UniProt P16333); conditions: n = 3
Experimental: as §1, with “OD450. […]” for “OD450.”
First, we aimed at quantifying the binding affinities of the SH3-displaying phages to Sam68. […] Finally, bound phages were detected using an anti-M13-specific HRP-coupled antibody. […]
as §3

| Kd (Src) [nM] | Kd (IS2#3) [nM] | Kd (Hck) [nM] | Kd (Nck1#2) [nM] | Substance | Kd (β-Pix-SH3) [nM] |
| --- | --- | --- | --- | --- | --- |
|  |  |  |  | Pak2 | 59 |
| 6 | 59 | 31 | 31 | Src-associated in mitosis 68 kDa (KHDRBS1), full-length, N-terminally His-tagged recombinant [Sam68] |  |
